# In patent publication US20240376108A1, “SALT AND CRYSTAL FORM OF PYRAZOLE-CONTAINING POLYCYCLIC DERIVATIVE, AND PREPARATION METHOD THEREFOR AND USE THEREOF” (Shanghai Hansoh Biomedical Co., Ltd., priority 2021, published 2024):
# Columns and labels:
# Format in all cases: physicochemical
# [1] = Screening of the salt form and of the crystal form of the salt; conditions: 40 to 50° C., stirred overnight
# Procedure: 2.1 Screening of the salt form of the compound
# 2.1.1 Experimental objective: To screen the salt form of the compound.
# Salt forming by solventing out or suspension: 10 mg of compound 2-(2-cyano-5-oxo-8-(trifluoromethyl)pyrazolo[1,5-a]pyrido[3,2-e]pyrimidin-4(5H)-yl)-N-(5-fluoropyridin-2-yl)acetamide was weighed, to which 200 μL to 400 μL of solvent was added. The solution was stirred at 40 to 50° C., to which different acids were added respectively. The solution was stirred overnight, cooled to room temperature, filtered, and dried to obtain the salt of the compound.
# 3.1 Study on the crystal form of the salt of 2-(2-cyano-5-oxo-8-(trifluoromethyl)pyrazolo[1,5-a]pyrido[3,2-e]pyrimidin-4(5H)-yl)-N-(5-fluoropyridin-2-yl)acetamide
# 3.1.1 Experimental objective: To screen the salt of compound 2-(2-cyano-5-oxo-8-(trifluoromethyl)pyrazolo[1,5-a]pyrido[3,2-e]pyrimidin-4(5H)-yl)-N-(5-fluoropyridin-2-yl)acetamide that can form a crystal form.
# 2) Operating procedures: Salt forming by solventing out or suspension: 10 mg of the compound was weighed, to which 200 μL to 400 μL of solvent was added. The solution was stirred at 40 to 50° C., to which different acids were added respectively. The solution was stirred overnight, cooled to room temperature, filtered, and dried to obtain the salt of the compound.
# [2] = Hygroscopicity experiment (DVS); conditions: 25° C.
# Text: 7.1 Hygroscopicity experiment of crystal forms of different salts of compound 2-(2-cyano-5-oxo-8-(trifluoromethyl)pyrazolo[1,5-a]pyrido[3,2-e]pyrimidin-4(5H)-yl)-N-(5-fluoropyridin-2-yl)acetamide
# 7.1.1 Experimental objective: To investigate the hygroscopicity of crystal forms of different salts of compound 2-(2-cyano-5-oxo-8-(trifluoromethyl)pyrazolo[1,5-a]pyrido[3,2-e]pyrimidin-4(5H)-yl)-N-(5-fluoropyridin-2-yl)acetamide at different relative humidity, so as to provide a basis for storage.
# 7.1.2 Experimental protocol: Crystal forms of different salts of the compound were placed in saturated water vapor with different relative humidity to achieve dynamic equilibrium between the compound and water vapor, and the percentage of hygroscopic weight gain of the compound after equilibrium was calculated.
# [3] = Solubility experiment in different media; conditions: room temperature, 24 hours
# Procedure: The vials were placed on a spin mixer overnight at room temperature. After 24 hours, the sample solution was filtered through a 0.45 μm mixed aqueous fiber membrane. The content of the compound in the filtrate was determined by HPLC. [table]
# [4] = solvent Dichloromethane (400 μL)
# [5] = solvent Tetrahydrofuran (200 μL)
# [6] = Cycle 1, target relative humidity 0.0%
# [7] = Cycle 1, target relative humidity 10.0%
# [8] = Cycle 1, target relative humidity 20.0%
# [9] = Cycle 1, target relative humidity 30.0%
# [10] = Cycle 1, target relative humidity 40.0%
# [11] = Cycle 1, target relative humidity 50.0%
# [12] = Cycle 1, target relative humidity 60.0%
# [13] = Cycle 1, target relative humidity 70.0%
# [14] = Cycle 1, target relative humidity 80.0%
# [15] = Cycle 1, target relative humidity 90.0%
# [16] = Cycle 1, target relative humidity 95.0%
# [17] = Cycle 2, target relative humidity 0.0%
# [18] = Cycle 2, target relative humidity 10.0%
# [19] = Cycle 2, target relative humidity 20.0%
# [20] = Cycle 2, target relative humidity 30.0%
# [21] = Cycle 2, target relative humidity 40.0%
# [22] = Cycle 2, target relative humidity 50.0%
# [23] = Cycle 2, target relative humidity 60.0%
# [24] = Cycle 2, target relative humidity 70.0%
# [25] = Cycle 2, target relative humidity 80.0%
# [26] = Cycle 2, target relative humidity 90.0%
# [27] = Cycle 2, target relative humidity 95.0%
structure (smiles),measurement,setting,value
CCS(=O)(=O)O [Ethanesulfonic acid],"Results (salt forming with acid, 1M in EtOH)",[1]; solvent 2-Butanone (250 μL),Crystal form
same,"Results (salt forming with acid, 1M in EtOH)",[1]; solvent Acetone (400 μL),Crystal form
same,"Results (salt forming with acid, 1M in EtOH)",[1]; [4],Crystal form
same,"Results (salt forming with acid, 1M in EtOH)",[1]; solvent Methanol (400 μL),Crystal form
same,"Results (salt forming with acid, 1M in EtOH)",[1]; [5],Crystal form
Br [Hydrobromic acid],"Results (salt forming with acid, 1M in EtOH)",[1]; solvent 2-Butanone (250 μL),Crystal form
same,"Results (salt forming with acid, 1M in EtOH)",[1]; solvent Acetone (400 μL),Crystal form
same,"Results (salt forming with acid, 1M in EtOH)",[1]; [4],Crystal form
same,"Results (salt forming with acid, 1M in EtOH)",[1]; solvent Methanol (400 μL),Crystal form
same,"Results (salt forming with acid, 1M in EtOH)",[1]; [5],Crystal form
Cl [Hydrochloric acid],"Results (salt forming with acid, 1M in EtOH)",[1]; solvent 2-Butanone (250 μL),Crystal form
same,"Results (salt forming with acid, 1M in EtOH)",[1]; solvent Acetone (400 μL),Crystal form
same,"Results (salt forming with acid, 1M in EtOH)",[1]; [4],Crystal form
same,"Results (salt forming with acid, 1M in EtOH)",[1]; solvent Methanol (400 μL),Crystal form
same,"Results (salt forming with acid, 1M in EtOH)",[1]; [5],Crystal form
"Cl.N#Cc1cc2n(CC(=O)Nc3ccc(F)cn3)c(=O)c3ccc(C(F)(F)F)nc3n2n1 [Hydrochloride (crystal form A), 2-(2-cyano-5-oxo-8-(trifluoromethyl)pyrazolo[1,5-a]pyrido[3,2-e]pyrimidin-4(5H)-yl)-N-(5-fluoropyridin-2-yl)acetamide hydrochloride]","% percentage of mass change, Desorption",[2]; [6],−0.041%
same,"% percentage of mass change, Sorption",[2]; [6],0.000%
same,"% percentage of mass change, Desorption",[2]; [7],0.130%
same,"% percentage of mass change, Sorption",[2]; [7],0.131%
same,"% percentage of mass change, Desorption",[2]; [8],0.313%
same,"% percentage of mass change, Sorption",[2]; [8],0.275%
same,"% percentage of mass change, Desorption",[2]; [9],7.258%
same,"% percentage of mass change, Sorption",[2]; [9],4.325%
same,"% percentage of mass change, Desorption",[2]; [10],7.532%
same,"% percentage of mass change, Sorption",[2]; [10],7.346%
same,"% percentage of mass change, Desorption",[2]; [11],7.722%
same,"% percentage of mass change, Sorption",[2]; [11],7.466%
same,"% percentage of mass change, Desorption",[2]; [12],7.825%
same,"% percentage of mass change, Sorption",[2]; [12],7.581%
same,"% percentage of mass change, Desorption",[2]; [13],7.898%
same,"% percentage of mass change, Sorption",[2]; [13],7.709%
same,"% percentage of mass change, Desorption",[2]; [14],7.968%
same,"% percentage of mass change, Sorption",[2]; [14],7.840%
same,"% percentage of mass change, Desorption",[2]; [15],8.071%
same,"% percentage of mass change, Sorption",[2]; [15],8.018%
same,"% percentage of mass change, Desorption",[2]; [16],8.141%
same,"% percentage of mass change, Sorption",[2]; [16],8.141%
same,"% percentage of mass change, Desorption",[2]; [17],−0.062%
same,"% percentage of mass change, Sorption",[2]; [17],−0.041%
same,"% percentage of mass change, Desorption",[2]; [18],0.098%
same,"% percentage of mass change, Sorption",[2]; [18],0.095%
same,"% percentage of mass change, Desorption",[2]; [19],0.273%
same,"% percentage of mass change, Sorption",[2]; [19],0.236%
same,"% percentage of mass change, Desorption",[2]; [20],7.191%
same,"% percentage of mass change, Sorption",[2]; [20],5.345%
same,"% percentage of mass change, Desorption",[2]; [21],7.462%
same,"% percentage of mass change, Sorption",[2]; [21],7.269%
same,"% percentage of mass change, Desorption",[2]; [22],7.649%
same,"% percentage of mass change, Sorption",[2]; [22],7.383%
same,"% percentage of mass change, Desorption",[2]; [23],7.738%
same,"% percentage of mass change, Sorption",[2]; [23],7.492%
same,"% percentage of mass change, Desorption",[2]; [24],7.806%
same,"% percentage of mass change, Sorption",[2]; [24],7.610%
same,"% percentage of mass change, Desorption",[2]; [25],7.872%
same,"% percentage of mass change, Sorption",[2]; [25],7.745%
same,"% percentage of mass change, Desorption",[2]; [26],7.972%
same,"% percentage of mass change, Sorption",[2]; [26],7.925%
same,"% percentage of mass change, Desorption",[2]; [27],8.047%
same,"% percentage of mass change, Sorption",[2]; [27],8.047%
CS(=O)(=O)O [Methanesulfonic acid],"Results (salt forming with acid, 1M in EtOH)",[1]; solvent 2-Butanone (250 μL),Crystal form
same,"Results (salt forming with acid, 1M in EtOH)",[1]; solvent Acetone (400 μL),Crystal form
same,"Results (salt forming with acid, 1M in EtOH)",[1]; [4],Crystal form
same,"Results (salt forming with acid, 1M in EtOH)",[1]; solvent Methanol (400 μL),Crystal form
same,"Results (salt forming with acid, 1M in EtOH)",[1]; [5],Crystal form
O=S(=O)(O)O [Sulfuric acid],"Results (salt forming with acid, 1M in EtOH)",[1]; solvent 2-Butanone (250 μL),Crystal form
same,"Results (salt forming with acid, 1M in EtOH)",[1]; solvent Acetone (400 μL),Crystal form
same,"Results (salt forming with acid, 1M in EtOH)",[1]; [4],Crystal form
same,"Results (salt forming with acid, 1M in EtOH)",[1]; solvent Methanol (400 μL),Crystal form
same,"Results (salt forming with acid, 1M in EtOH)",[1]; [5],Crystal form
"N#Cc1cc2n(CC(=O)Nc3ccc(F)cn3)c(=O)c3ccc(C(F)(F)F)nc3n2n1 [crystal form II of the free base, 2-(2-cyano-5-oxo-8-(trifluoromethyl)pyrazolo[1,5-a]pyrido[3,2-e]pyrimidin-4(5H)-yl)-N-(5-fluoropyridin-2-yl)acetamide free base]",Solubility,[3]; FaSSGF,0.7 µg/mL
same,Solubility,[3]; FaSSIF,1.1 µg/mL
same,Solubility,[3]; FeSSIF,2.5 µg/mL
same,Solubility,[3]; H2O,0.6 µg/mL
same,Solubility,[3]; USP Buffer pH 1,0.6 µg/mL
same,Solubility,[3]; USP Buffer pH 2,0.6 µg/mL
same,Solubility,[3]; USP Buffer pH 3,1.1 µg/mL
same,Solubility,[3]; USP Buffer pH 4,1 µg/mL
same,Solubility,[3]; USP Buffer pH 5,0.8 µg/mL
same,Solubility,[3]; USP Buffer pH 6,0.6 µg/mL
same,Solubility,[3]; USP Buffer pH 7,0.5 µg/mL
same,Solubility,[3]; USP Buffer pH 8,0.5 µg/mL
